# Measured values taken from patent US20180325947A1, “USE OF MAPK INHIBITORS TO REDUCE LOSS OF HEMATOPOIETIC STEM CELLS DURING EX VIVO CULTURE AND/OR GENETIC MANIPULATION” (Children's Hospital Medical Center, priority 2015, published 2018).
# Legend:
# [1] = system: human CD45+ cell engraftment in NSG mice; experiment: primary transplant (1T) of cultured hCD34+ cells into NSG mice, hCD45+ engraftment in bone marrow; type: in vivo; conditions: for hCD45+ cell engraftment in bone marrow of 1T mice: 24 weeks after primary transplant of cultured hCD34+ cells with/without inhibitor
# Method: FIG. 2. A preclinical model for studying adult human HSC ex vivo manipulation and gene transfer and its effect on LTRP. (Panel A) Freshly isolated or thawed mobilized peripheral blood (MPB) derived CD34+ cells were utilized for the study. Two different protocols were utilized for the study where lentivirus (LV) or γ-Retrovirus (RV) mediated gene transfer was performed at indicated time points. 0 h, 18-24 h, 36-42 h, and 72-96 h indicates the total amount of time where cells were exposed in the ex vivo culture after CD34 isolation before injection into NSG mice. (Panel B) After indicated time in culture and transduction, 1 million CD34+ starting equivalent cells were transplanted per NSG mouse after TBI intravenously (primary transplant=1T). Primary human engraftment and multi-lineage reconstitution was analyzed in mice at indicated time periods after bone marrow harvest at 6 and 12 weeks (wks) from left and right femurs, and after sacrifice at 24 wks, from all bones. A portion of cells were analyzed for FACS and the rest were depleted of mouse CD45+ cells and transplanted one to one, into secondary mice (secondary transplant=2T).
# Panel A: hCD45^+ cell engraftment in bone marrow of 1T mice at 24 weeks following transplant of cultured hCD34^+ cells with/without p38 inhibitor Birb796. Panel B: Number of 2T mice engrafted (>0.01% hCD45^+ cells in BM) are shown above the middle bar and those non-engrafted below.
# A xenograft model was developed to study hHSC engraftment. In the xenograft model of adult human HSC, CD34^+ cells were derived and isolated from fresh MPB. The fresh CD34^+ cells were either directly transplanted into immunocompromised NSG mice or cultured with human cytokines and then transduced either with lentivirus or retrovirus. […] The multipotential human hematopoietic progeny (hCD45^+) following huCD34^+ transplant in NSG mice were then measured to confirm that the model human HSC engraftment from adult (mobilized peripheral blood) CD34^+ HSC/P that mimics the results observed in gene therapy clinical trials. […]
# [2] = system: human CD34+ 38- 90+ HSC enriched population; experiment: DNA damage response (gamma-H2AX, 53BP1) by immunofluorescence and flow cytometry; type: cell-based
# Method: Human MPB derived CD34^+ cells were cultured and transduced with lentivirus (LV) or retrovirus (RV) for the indicated time points. Representative Immunofluorescence images of sorted human CD34^+ 38^− 90^+ population treated with or without p38i for 72 hours stained with anti-γH2AX and 53BP1 (Panel A) and quantification of γ-H2AX (Panel B) and 53BP1 (Panel C) MFI/cell. Panel D: Representative histogram plot from flow cytometric analysis of CD34^+ 38^− 90^+ HSC enriched cells stained for γ-H2AX with or without p38 inhibitor (p38i) and quantification of fold change in mean fluorescence intensity (MFI) of γ-H2AX in HSCs (Panel E) and percent GH2AX^+ cells (Panel F) at indicated time period. Percentage shown in histograms are cells positive for γH2AX and the numbers below is mean fluorescent intensity (MFI) (n=5 independent experiments). FACS plot representing HSCs in G0 (Quiescent), G1, and S-G2-M phase of cell cycle with or without p38i (Panel G) and quantification (Panel H) of HSC enriched population at different cell cycle phase at indicated time of ex vivo culture. Percentage of (±SEM) Ki67^− (G0) and Ki67^+ (G1-S-G2-M) HSCs is depicted on the y-axis. (n=4 independent experiments for 24 h LV and n=5 independent experiments for 42 h LV and 72 h RV)). Statistics: paired Student's t test, *p<0.05, **p<0.01, ***p<0.001.
# Human MPB derived CD34^+ cells were cultured and transduced as described in FIG. 17. Panel A: Quantification of γ-H2AX^+ CD34^+ 38^− 90^+ cells at 24, 42, & 72 hours. n=5-8 independent experiments/condition). Panel B: Quantification of immunofluorescence analysis for γ-H2AX (left) and 53BP1 (right) MFI per sorted human CD34^+ 38^− 90^+ cell with or without p38i for 42 hours. Panel C: Quantitative plot representing CD34^+ 38^− 90^+ cells in G0-G1, and S-G2-M phase of cell cycle with or without p38i at 42 hours of ex vivo culture and lentivirus (LV) transduction. (n=6 independent experiments/condition). Statistics: paired Student's t test, *p<0.05, **p<0.01, ***p<0.001. Statistics: Student's t test, *p<0.05, **p<0.01, ***p<[…].
# Human BM derived CD34 cells were cultured and transduced with lentivirus (LV) for 48 hours. Representative FACS plot representing bone marrow derived HSC enriched CD34^+ 38^− 90^+ population in G0 (Quiescent), G1, and S-G2-M phase of cell cycle with or without p38i (left) and the corresponding representative histogram plot of γH2AX at indicated time and treatment. Percentage shown in histogram refers to cells positive for γH2AX and the numbers below is mean fluorescent intensity (MFI).
# p38 inhibition maintains the quiescent phase of HSCs and reduces DNA damage response (DDR) early in culture. Cell cycle entry and gene manipulation induces a DDR in human HSCs that is reduced by inhibiting p38MAPK early in culture. DNA double-strand breaks in Human HSCs were assessed by γ-H2AX staining, a sensitive and specific indicator of DNA double-strand breaks.
smiles,measurement,setting,value
"Cc1ccc(-n2nc(C(C)(C)C)cc2NC(=O)Nc2ccc(OCCN3CCOCC3)c3ccccc23)cc1 [BIRB-796, 1-[5-tert-butyl-2-(4-methylphenyl)pyrazol-3-yl]-3-[4-(2-morpholin-4-ylethoxy)naphthalen-1-yl]urea]","human CD45+ cell engraftment in NSG BM, 1T","[1]; 24 weeks after 1T, 72-96 h LV and RV groups",slightly improved
same,hCD45+ cell engraftment in bone marrow of 1T mice,[1],not affecting
same,hCD45+ cell engraftment in bone marrow of 1T mice,[1]; listed as Birb796,significantly increases
same,percentage of γH2AX+ cells,[2]; 36-42 h and 72-96 h groups,significantly reduced
same,γH2AX staining,"[2]; 24 hours of culture, flow cytometry",returned to levels seen in unmanipulated HSC
same,DNA Damage Response (DDR),"[2]; MPB derived CD34+ 38- 90+ cells, ex vivo culture and gene transfer",reduces
same,DNA Damage Response (DDR),"[2]; bone marrow (BM) derived CD34+ 38- 90+ cells, LV 48 hours",reduces
same,γH2AX foci (DNA damage response),[2]; cultured and transduced for 36-42 hours or 72 hours,rescued
